# From PubChem BioAssay AID2060907 (Molecular Pharmacology Branch, DTP, NCI, 2025)
# Test system: 388556-164-R-J1-PDC complex spheroid viability
# Assay: Anticancer human tumor 388556-164-R-J1-PDC patient-derived colon adenocarcinoma cell line growth inhibition [RAS]
# Conditions: for IC50: curve of first compound; for viability, T/C: stronger effect = lower value
# Procedure, shortened: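 Agents were tested in combination matrices in half-log decrements from a top concentration at or near clinical Cmax (10 microM if undetermined). Targets were multi-cell spheroids of tumour lines plus HUVEC and MSC stromal cells.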
# [1] = second compound 0.000949 µM, first compound 0.0316 µM
# [2] = second compound 0.000949 µM, first compound 0.1 µM
# [3] = second compound 0.000949 µM, first compound 0.316 µM
# [4] = second compound 0.000949 µM, first compound 1 µM
# [5] = second compound 0.003 µM, first compound 0.0316 µM
# [6] = second compound 0.003 µM, first compound 0.1 µM
# [7] = second compound 0.003 µM, first compound 0.316 µM
# [8] = second compound 0.003 µM, first compound 1 µM
# [9] = second compound 0.00949 µM, first compound 0.0316 µM
# [10] = second compound 0.00949 µM, first compound 0.1 µM
# [11] = second compound 0.00949 µM, first compound 0.316 µM
# [12] = second compound 0.00949 µM, first compound 1 µM
# [13] = second compound 0.03 µM, first compound 0.0316 µM
# [14] = second compound 0.03 µM, first compound 0.1 µM
# [15] = second compound 0.03 µM, first compound 0.316 µM
# [16] = second compound 0.03 µM, first compound 1 µM
# [17] = second compound 0.0949 µM, first compound 0.0316 µM
# [18] = second compound 0.0949 µM, first compound 0.1 µM
# [19] = second compound 0.0949 µM, first compound 0.316 µM
# [20] = second compound 0.0949 µM, first compound 1 µM
# [21] = second compound 0.3 µM, first compound 0.0316 µM
# [22] = second compound 0.3 µM, first compound 0.1 µM
# [23] = second compound 0.3 µM, first compound 0.316 µM
# [24] = second compound 0.3 µM, first compound 1 µM
# [25] = second compound 0.000949 µM, first compound 3.16 µM
# [26] = second compound 0.000949 µM, first compound 10 µM
# [27] = second compound 0.003 µM, first compound 3.16 µM
# [28] = second compound 0.003 µM, first compound 10 µM
# [29] = second compound 0.00949 µM, first compound 3.16 µM
# [30] = second compound 0.00949 µM, first compound 10 µM
# [31] = second compound 0.03 µM, first compound 3.16 µM
# [32] = second compound 0.03 µM, first compound 10 µM
# [33] = second compound 0.0949 µM, first compound 3.16 µM
# [34] = second compound 0.0949 µM, first compound 10 µM
# [35] = second compound 0.3 µM, first compound 3.16 µM
# [36] = second compound 0.3 µM, first compound 10 µM
# 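Note: spheroids exposed to compound for 7 days before readout.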
# 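Throughout, for viability, T/C: 100% = DMSO vehicle control luminescence.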
structure (smiles),measurement,setting,value
CCN1CCN(Cc2ccc(Nc3ncc(F)c(-c4cc(F)c5nc(C)n(C(C)C)c5c4)n3)nc2)CC1 + CCn1c(-c2cc(N3CCN(C)CC3)cnc2C(C)OC)c2c3cc(ccc31)-c1csc(n1)CC(NC(=O)C1CC1C)C(=O)N1CCCC(N1)C(=O)OCC(C)(C)C2,IC50,second compound 0.000949 µM,> 1000 nM
same,IC50,second compound 0.003 µM,> 1000 nM
same,IC50,second compound 0.00949 µM,879 nM
same,IC50,second compound 0.03 µM,219 nM
same,IC50,second compound 0.0949 µM,< 3.16 nM
same,IC50,second compound 0.3 µM,< 3.16 nM
same,"viability, T/C","second compound 0.000949 µM, first compound 0.00316 µM",97.5%
same,"viability, T/C","second compound 0.000949 µM, first compound 0.01 µM",92.2%
same,"viability, T/C",[1],93.1%
same,"viability, T/C",[2],79.4%
same,"viability, T/C",[3],75%
same,"viability, T/C",[4],75.2%
same,"viability, T/C","second compound 0.003 µM, first compound 0.00316 µM",96%
same,"viability, T/C","second compound 0.003 µM, first compound 0.01 µM",96.8%
same,"viability, T/C",[5],76.6%
same,"viability, T/C",[6],71.3%
same,"viability, T/C",[7],66.2%
same,"viability, T/C",[8],58.7%
same,"viability, T/C","second compound 0.00949 µM, first compound 0.00316 µM",79.8%
same,"viability, T/C","second compound 0.00949 µM, first compound 0.01 µM",78.6%
same,"viability, T/C",[9],68.5%
same,"viability, T/C",[10],58.1%
same,"viability, T/C",[11],62.7%
same,"viability, T/C",[12],46.8%
same,"viability, T/C","second compound 0.03 µM, first compound 0.00316 µM",59%
same,"viability, T/C","second compound 0.03 µM, first compound 0.01 µM",64.4%
same,"viability, T/C",[13],65.9%
same,"viability, T/C",[14],57.9%
same,"viability, T/C",[15],46.2%
same,"viability, T/C",[16],38.7%
same,"viability, T/C","second compound 0.0949 µM, first compound 0.00316 µM",45.9%
same,"viability, T/C","second compound 0.0949 µM, first compound 0.01 µM",41.2%
same,"viability, T/C",[17],35.4%
same,"viability, T/C",[18],30.8%
same,"viability, T/C",[19],34%
same,"viability, T/C",[20],31.4%
same,"viability, T/C","second compound 0.3 µM, first compound 0.00316 µM",33.2%
same,"viability, T/C","second compound 0.3 µM, first compound 0.01 µM",32.3%
same,"viability, T/C",[21],31.9%
same,"viability, T/C",[22],30.8%
same,"viability, T/C",[23],29.5%
same,"viability, T/C",[24],31.5%
Cc1nc(N2CCC3(CC2)COC(C)C3N)c(CO)nc1Sc1ccnc(N)c1Cl (stereo unspecified) + CCn1c(-c2cc(N3CCN(C)CC3)cnc2C(C)OC)c2c3cc(ccc31)-c1csc(n1)CC(NC(=O)C1CC1C)C(=O)N1CCCC(N1)C(=O)OCC(C)(C)C2,IC50,second compound 0.000949 µM,774 nM
same,IC50,second compound 0.003 µM,694 nM
same,IC50,second compound 0.00949 µM,233 nM
same,IC50,second compound 0.03 µM,67.6 nM
same,IC50,second compound 0.0949 µM,< 31.6 nM
same,IC50,second compound 0.3 µM,< 31.6 nM
same,"viability, T/C",[1],84.3%
same,"viability, T/C",[2],83.6%
same,"viability, T/C",[3],60.2%
same,"viability, T/C",[4],47.5%
same,"viability, T/C",[25],43.1%
same,"viability, T/C",[26],34.3%
same,"viability, T/C",[5],81.2%
same,"viability, T/C",[6],70.3%
same,"viability, T/C",[7],57.7%
same,"viability, T/C",[8],45.8%
same,"viability, T/C",[27],39.2%
same,"viability, T/C",[28],32.8%
same,"viability, T/C",[9],68.7%
same,"viability, T/C",[10],53.4%
same,"viability, T/C",[11],52.5%
same,"viability, T/C",[12],36.6%
same,"viability, T/C",[29],35.1%
same,"viability, T/C",[30],29.7%
same,"viability, T/C",[13],56.7%
same,"viability, T/C",[14],45.6%
same,"viability, T/C",[15],39.2%
same,"viability, T/C",[16],33.4%
same,"viability, T/C",[31],29.9%
same,"viability, T/C",[32],23.5%
same,"viability, T/C",[17],40.6%
same,"viability, T/C",[18],37.2%
same,"viability, T/C",[19],30.9%
same,"viability, T/C",[20],26.3%
same,"viability, T/C",[33],25.9%
same,"viability, T/C",[34],22.8%
same,"viability, T/C",[21],28.8%
same,"viability, T/C",[22],30.6%
same,"viability, T/C",[23],25.4%
same,"viability, T/C",[24],25.7%
same,"viability, T/C",[35],24%
same,"viability, T/C",[36],20%
NC1c2ccccc2OC12CCN(c1cnc3c(N4CCCc5ncccc54)n[nH]c3n1)CC2 (stereo unspecified) + CCn1c(-c2cc(N3CCN(C)CC3)cnc2C(C)OC)c2c3cc(ccc31)-c1csc(n1)CC(NC(=O)C1CC1C)C(=O)N1CCCC(N1)C(=O)OCC(C)(C)C2,IC50,second compound 0.000949 µM,106 nM
same,IC50,second compound 0.003 µM,116 nM
same,IC50,second compound 0.00949 µM,47.6 nM
same,IC50,second compound 0.03 µM,< 31.6 nM
same,IC50,second compound 0.0949 µM,< 31.6 nM
same,IC50,second compound 0.3 µM,< 31.6 nM
same,"viability, T/C",[1],64.5%
same,"viability, T/C",[2],50.1%
same,"viability, T/C",[3],39%
same,"viability, T/C",[4],39.8%
same,"viability, T/C",[25],30.3%
same,"viability, T/C",[26],29.1%
same,"viability, T/C",[5],63%
same,"viability, T/C",[6],52%
same,"viability, T/C",[7],39.2%
same,"viability, T/C",[8],30.3%
same,"viability, T/C",[27],27.7%
same,"viability, T/C",[28],22.6%
same,"viability, T/C",[9],54.3%
same,"viability, T/C",[10],43.1%
same,"viability, T/C",[11],30.6%
same,"viability, T/C",[12],24.3%
same,"viability, T/C",[29],23.8%
same,"viability, T/C",[30],21.9%
same,"viability, T/C",[13],35.7%
same,"viability, T/C",[14],29.9%
same,"viability, T/C",[15],26.3%
same,"viability, T/C",[16],22.5%
same,"viability, T/C",[31],20.5%
same,"viability, T/C",[32],18.6%
same,"viability, T/C",[17],32.3%
same,"viability, T/C",[18],27.8%
same,"viability, T/C",[19],22.5%
same,"viability, T/C",[20],20.8%
same,"viability, T/C",[33],22.4%
same,"viability, T/C",[34],19.1%
same,"viability, T/C",[21],27.5%
same,"viability, T/C",[22],23.8%
same,"viability, T/C",[23],23.3%
same,"viability, T/C",[24],21.3%
same,"viability, T/C",[35],22.2%
same,"viability, T/C",[36],21.9%
